Measurements as given in patent publication US20220264878A1, “HERBICIDAL COMPOSITION CONTAINING R-TYPE PYRIDYLOXY CARBOXYLIC ACID DERIVATIVE AND USE THEREOF” (Qingdao Kingagroot Chemical Compound Co., Ltd., priority 2019, published 2022).

Assays:
Assay in all cases: Post-emergence foliage spray, pot culture, fresh weight inhibition (Tables 1-48, 51-98, 101-148; 24 days)
Assay type in all cases: in vivo
[1] = system: Stellaria media; conditions: Table 105
Summary of the method: (§1)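 Pot-grown weeds were thinned to 15 per pot (45 per treatment) and sprayed on foliage at the 5–6-leaf stage for grasses or the 6–7-leaf stage for broadleaves. Agents were dissolved in acetone with 0.1% Tween-80 and applied at 450 kg/ha spray volume and 0.3 MPa. Plants were then kept in a greenhouse. Above-ground fresh weight of survivors, with dead plants counted as zero, gave inhibition versus a solvent/emulsifier blank.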

[2] = system: Ammannia arenaria; conditions: Table 103
Summary of the method: (§2)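 Greenhouse pot-grown weeds (15 per pot, 3 pots, 4 replicates) at the 5–6-leaf (grasses) or 6–7-leaf (broadleaf) stage were sprayed once on foliage at 450 kg/ha spray volume, 0.3 MPa. Acetone solutions were diluted in 0.1% Tween-80. Aboveground fresh weight versus blank control was recorded after 24 days.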

[3] = system: Acalypha australis
Summary of the method: as §2

[4] = system: Sonchus oleraceus L.
Summary of the method: as §2

[5] = system: Setaria faberi
Summary of the method: as §2

[6] = system: Xanthium strumarium
Summary of the method: as §2

[7] = system: Solanum nigrum
Summary of the method: as §2

[8] = system: Sinapis arvensis
Summary of the method: as §2

[9] = system: Cirsium setosum; conditions: Table 111
Summary of the method: as §2

[10] = system: Chloris virgata
Summary of the method: as §2

[11] = system: Beckmannia syzigachne
Summary of the method: as §2

[12] = system: Abutilon theophrasti
Summary of the method: as §2

[13] = system: Capsella bursa-pastoris
Summary of the method: as §2

[14] = system: Sonchus arvensis
Summary of the method: as §2

[15] = system: Malachium aquaticum
Summary of the method: as §1

[16] = system: Galium aparine L.; conditions: 24 days
Summary of the method: as §1

[17] = system: Eclipta prostrate; conditions: 24 days
Summary of the method: as §2

[18] = system: Ludwigia prostrate
Summary of the method: as §2

[19] = system: Conyza Canadensis
Summary of the method: as §2

[20] = system: Ipomoea purpurea; conditions: Table 98
Summary of the method: as §2

[21] = system: Setaria glauca; conditions: Table 84
Summary of the method: as §2

Structure (SMILES): C[C@@H](Oc1nc(F)c(Cl)c(N)c1Cl)C(=O)[O-].[Na+] [Compound A3, A1 sodium salt]
- Control effect (%) of A applied alone in corresponding dose ([1]; 7.5 g a.i./ha): 34.1%
- Control effect (%) of A applied alone in corresponding dose ([1]; 15 g a.i./ha): 67.9%
- Control effect (%) of A applied alone in corresponding dose ([2]; 75 g a.i./ha): 30.4%
- Control effect (%) of A applied alone in corresponding dose ([2]; 150 g a.i./ha): 66.2%
- Control effect (%) of A applied alone in corresponding dose ([3]; A 75 g a.i./ha): 20.7%
- Control effect (%) of A applied alone in corresponding dose ([3]; A 150 g a.i./ha): 51.6%
- Control effect (%) of A applied alone in corresponding dose ([4]; A 75 g a.i./ha): 33.8%
- Control effect (%) of A applied alone in corresponding dose ([4]; A 150 g a.i./ha): 55.5%
- Control effect (%) of A applied alone in corresponding dose ([5]; A 30 g a.i./ha): 32.5%
- Control effect (%) of A applied alone in corresponding dose ([5]; A 60 g a.i./ha): 55.4%
- Control effect (%) of A applied alone in corresponding dose ([6]; A 7.5 g a.i./ha): 40.8%
- Control effect (%) of A applied alone in corresponding dose ([6]; A 15 g a.i./ha): 77.2%
- Control effect (%) of A applied alone in corresponding dose ([7]; A 75 g a.i./ha): 16.9%
- Control effect (%) of A applied alone in corresponding dose ([7]; A 150 g a.i./ha): 37.5%
- Control effect (%) of A applied alone in corresponding dose ([8]; A 15 g a.i./ha): 33.2%
- Control effect (%) of A applied alone in corresponding dose ([8]; A 30 g a.i./ha): 72.7%
- Control effect (%) of A applied alone in corresponding dose ([9]; 30 g a.i./ha): 31.5%
- Control effect (%) of A applied alone in corresponding dose ([9]; 60 g a.i./ha): 64.3%
- Control effect (%) of A applied alone in corresponding dose ([10]; A 75 g a.i./ha): 22.0%
- Control effect (%) of A applied alone in corresponding dose ([10]; A 150 g a.i./ha): 48.3%
- Control effect (%) of A applied alone in corresponding dose ([11]; A 75 g a.i./ha): 23.0%
- Control effect (%) of A applied alone in corresponding dose ([11]; A 150 g a.i./ha): 42.8%

Structure (SMILES): CC(C)N1C(=O)c2ccccc2NS1(=O)=O [bentazone]
- Control effect (%) of B applied alone in corresponding dose ([6]; B 18.75 g a.i./ha): 10.9%
- Control effect (%) of B applied alone in corresponding dose ([6]; B 37.5 g a.i./ha): 16.1%
- Control effect (%) of B applied alone in corresponding dose ([6]; B 75 g a.i./ha): 46.6%
- Control effect (%) of B applied alone in corresponding dose ([6]; B 150 g a.i./ha): 76.5%
- Control effect (%) of B applied alone in corresponding dose ([12]; bentazone 18.75 g a.i./ha): 5.9%
- Control effect (%) of B applied alone in corresponding dose ([12]; bentazone 37.5 g a.i./ha): 11.8%
- Control effect (%) of B applied alone in corresponding dose ([12]; bentazone 75 g a.i./ha): 49.0%
- Control effect (%) of B applied alone in corresponding dose ([12]; bentazone 150 g a.i./ha): 69.1%

Structure (SMILES): Cc1nn(C)cc1C(=O)Oc1c(C(=O)c2ccc(C(F)(F)F)cc2S(C)(=O)=O)c(C)nn1C [bipyrazone]
- Control effect (%) of B applied alone in corresponding dose ([8]; B 1.875 g a.i./ha): 9.9%
- Control effect (%) of B applied alone in corresponding dose ([8]; B 3.75 g a.i./ha): 23.8%
- Control effect (%) of B applied alone in corresponding dose ([8]; B 7.5 g a.i./ha): 50.8%
- Control effect (%) of B applied alone in corresponding dose ([8]; B 15 g a.i./ha): 83.7%
- Control effect (%) of B applied alone in corresponding dose ([13]; bipyrazone 18.75 g a.i./ha): 2.9%
- Control effect (%) of B applied alone in corresponding dose ([13]; bipyrazone 37.5 g a.i./ha): 12.9%
- Control effect (%) of B applied alone in corresponding dose ([13]; bipyrazone 75 g a.i./ha): 51.1%
- Control effect (%) of B applied alone in corresponding dose ([13]; bipyrazone 150 g a.i./ha): 80.3%

Structure (SMILES): CCOc1nc(F)cc2nc(S(=O)(=O)Nc3c(Cl)cccc3C(=O)OC)nn12 [cloransulam-methyl]
- Control effect (%) of B applied alone in corresponding dose ([14]; cloransulam-methyl 1.875 g a.i./ha): 6.5%
- Control effect (%) of B applied alone in corresponding dose ([14]; cloransulam-methyl 3.75 g a.i./ha): 15.0%
- Control effect (%) of B applied alone in corresponding dose ([14]; cloransulam-methyl 7.5 g a.i./ha): 52.8%
- Control effect (%) of B applied alone in corresponding dose ([14]; cloransulam-methyl 15 g a.i./ha): 72.9%
- Control effect (%) of B applied alone in corresponding dose ([9]; 1.875 g a.i./ha): 13.6%
- Control effect (%) of B applied alone in corresponding dose ([9]; 3.75 g a.i./ha): 23.1%
- Control effect (%) of B applied alone in corresponding dose ([9]; 7.5 g a.i./ha): 53.8%
- Control effect (%) of B applied alone in corresponding dose ([9]; 15 g a.i./ha): 71.9%

Structure (SMILES): COc1ncc(F)c2nc(S(=O)(=O)Nc3c(F)cccc3F)nn12 [florasulam]
- Control effect (%) of B applied alone in corresponding dose ([15]; florasulam 0.375 g a.i./ha): 3.6%
- Control effect (%) of B applied alone in corresponding dose ([15]; florasulam 0.75 g a.i./ha): 17.4%
- Control effect (%) of B applied alone in corresponding dose ([15]; florasulam 1.5 g a.i./ha): 56.4%
- Control effect (%) of B applied alone in corresponding dose ([15]; florasulam 3.0 g a.i./ha): 77.6%
- Control effect (%) of B applied alone in corresponding dose ([1]; 0.375 g a.i./ha): 6.8%
- Control effect (%) of B applied alone in corresponding dose ([1]; 0.75 g a.i./ha): 22.3%
- Control effect (%) of B applied alone in corresponding dose ([1]; 1.5 g a.i./ha): 56.9%
- Control effect (%) of B applied alone in corresponding dose ([1]; 3.0 g a.i./ha): 76.6%
- Control effect (%) of B applied alone in corresponding dose ([16]; B 0.375 g a.i/ha): 4.8%
- Control effect (%) of B applied alone in corresponding dose ([16]; B 0.75 g a.i/ha): 20.6%
- Control effect (%) of B applied alone in corresponding dose ([16]; B 1.5 g a.i/ha): 56.3%
- Control effect (%) of B applied alone in corresponding dose ([16]; B 3.0 g a.i/ha): 76.2%

Structure (SMILES): CCOC(=O)c1cnn(C)c1S(=O)(=O)NC(=O)Nc1nc(OC)cc(OC)n1 [pyrazosulfuron-ethyl]
- Control effect (%) of B applied alone in corresponding dose ([2]; 1.875 g a.i./ha): 16.3%
- Control effect (%) of B applied alone in corresponding dose ([2]; 3.75 g a.i./ha): 26.1%
- Control effect (%) of B applied alone in corresponding dose ([2]; 7.5 g a.i./ha): 52.8%
- Control effect (%) of B applied alone in corresponding dose ([2]; 15 g a.i./ha): 77.2%
- Control effect (%) of B applied alone in corresponding dose ([17]; B 1.875 g a.i/ha): 9.5%
- Control effect (%) of B applied alone in corresponding dose ([17]; B 3.75 g a.i/ha): 19.9%
- Control effect (%) of B applied alone in corresponding dose ([17]; B 7.5 g a.i/ha): 51.0%
- Control effect (%) of B applied alone in corresponding dose ([17]; B 15 g a.i/ha): 76.1%
- Control effect (%) of B applied alone in corresponding dose ([18]; pyrazosulfuron-ethyl 1.875 g a.i./ha): 7.6%
- Control effect (%) of B applied alone in corresponding dose ([18]; pyrazosulfuron-ethyl 3.75 g a.i./ha): 13.0%
- Control effect (%) of B applied alone in corresponding dose ([18]; pyrazosulfuron-ethyl 7.5 g a.i./ha): 52.2%
- Control effect (%) of B applied alone in corresponding dose ([18]; pyrazosulfuron-ethyl 15 g a.i./ha): 75.3%

Structure (SMILES): CC(C)N(C)S(=O)(=O)NC(=O)c1cc(-n2c(=O)cc(C(F)(F)F)n(C)c2=O)c(F)cc1Cl [saflufenacil]
- Control effect (%) of B applied alone in corresponding dose ([19]; saflufenacil 3.75 g a.i./ha): 3.0%
- Control effect (%) of B applied alone in corresponding dose ([19]; saflufenacil 7.5 g a.i./ha): 11.9%
- Control effect (%) of B applied alone in corresponding dose ([19]; saflufenacil 15 g a.i./ha): 39.2%
- Control effect (%) of B applied alone in corresponding dose ([19]; saflufenacil 30 g a.i./ha): 76.5%
- Control effect (%) of B applied alone in corresponding dose ([20]; 3.75 g a.i./ha): 7.9%
- Control effect (%) of B applied alone in corresponding dose ([20]; 7.5 g a.i./ha): 16.0%
- Control effect (%) of B applied alone in corresponding dose ([20]; 15 g a.i./ha): 41.3%
- Control effect (%) of B applied alone in corresponding dose ([20]; 30 g a.i./ha): 75.9%
- Control effect (%) of B applied alone in corresponding dose ([4]; B 3.75 g a.i./ha): 5.4%
- Control effect (%) of B applied alone in corresponding dose ([4]; B 7.5 g a.i./ha): 13.9%
- Control effect (%) of B applied alone in corresponding dose ([4]; B 15 g a.i./ha): 40.9%
- Control effect (%) of B applied alone in corresponding dose ([4]; B 30 g a.i./ha): 76.6%

Structure (SMILES): Cc1c(C(=O)c2cnn(C)c2O)ccc(S(C)(=O)=O)c1C1=NOCC1 [topramezone]
- Control effect (%) of B applied alone in corresponding dose ([5]; B 1.875 g a.i./ha): 3.2%
- Control effect (%) of B applied alone in corresponding dose ([5]; B 3.75 g a.i./ha): 11.7%
- Control effect (%) of B applied alone in corresponding dose ([5]; B 7.5 g a.i./ha): 36.5%
- Control effect (%) of B applied alone in corresponding dose ([5]; B 15 g a.i./ha): 75.4%
- Control effect (%) of B applied alone in corresponding dose ([21]; 1.875 g a.i./ha): 7.3%
- Control effect (%) of B applied alone in corresponding dose ([21]; 3.75 g a.i./ha): 10.6%
- Control effect (%) of B applied alone in corresponding dose ([21]; 7.5 g a.i./ha): 35.8%
- Control effect (%) of B applied alone in corresponding dose ([21]; 15 g a.i./ha): 72.3%
